{"source": "patent US10047069B2", "about": "“Compositions comprising an inhibitor of lysine specific demethylase-1” (Celgene Quanticel Research, Inc., priority 2015, dated 2018)", "data": [{"assay": "Stability post-storage at 40° C./75% RH assessed by XRPD", "type": "physicochemical", "settings": "form change assessed by XRPD", "experimental": "Representative samples for the twenty-six forms were further analysed by NMR/IC and DSC. The stability of the samples after storage at 40° C./75% RH was also assessed by XRPD. Solubility in FeSSIF media was determined for selected samples. […] IC was employed to determine the molar equivalence for inorganic counterions, sulphate and phosphate.", "values": [{"smiles": "COc1ccc(-c2c(-c3ccc(C#N)c(F)c3)nc(N3CCC(N)CC3)n(C)c2=O)cc1F", "note": "[pTSA 2, 4-[2-(4-aminopiperidin-1-yl)-5-(3-fluoro-4-methoxyphenyl)-1-methyl-6-oxo-1,6-dihydropyrimidin-4-yl]-2-fluorobenzonitrile]", "Stability post-storage at 40° C./75% RH": "Slight change in pattern"}, {"smiles": "COc1ccc(-c2c(-c3ccc(C#N)c(F)c3)nc(N3CCC(N)CC3)n(C)c2=O)cc1F", "note": "[SUCA 2, 4-[2-(4-aminopiperidin-1-yl)-5-(3-fluoro-4-methoxyphenyl)-1-methyl-6-oxo-1,6-dihydropyrimidin-4-yl]-2-fluorobenzonitrile]", "Stability post-storage at 40° C./75% RH": "Pattern change"}, {"smiles": "COc1ccc(-c2c(-c3ccc(C#N)c(F)c3)nc(N3CCC(N)CC3)n(C)c2=O)cc1F", "note": "[MSA 2, 4-[2-(4-aminopiperidin-1-yl)-5-(3-fluoro-4-methoxyphenyl)-1-methyl-6-oxo-1,6-dihydropyrimidin-4-yl]-2-fluorobenzonitrile]", "Stability post-storage at 40° C./75% RH": "Extra peaks observed"}, {"smiles": "COc1ccc(-c2c(-c3ccc(C#N)c(F)c3)nc(N3CCC(N)CC3)n(C)c2=O)cc1F", "note": "[FUA 2, 4-[2-(4-aminopiperidin-1-yl)-5-(3-fluoro-4-methoxyphenyl)-1-methyl-6-oxo-1,6-dihydropyrimidin-4-yl]-2-fluorobenzonitrile]", "Stability post-storage at 40° C./75% RH": "Increased"}, {"smiles": "COc1ccc(-c2c(-c3ccc(C#N)c(F)c3)nc(N3CCC(N)CC3)n(C)c2=O)cc1F", "note": "[MLNA 2, 4-[2-(4-aminopiperidin-1-yl)-5-(3-fluoro-4-methoxyphenyl)-1-methyl-6-oxo-1,6-dihydropyrimidin-4-yl]-2-fluorobenzonitrile]", "Stability post-storage at 40° C./75% RH": "Pattern change"}, {"smiles": "COc1ccc(-c2c(-c3ccc(C#N)c(F)c3)nc(N3CCC(N)CC3)n(C)c2=O)cc1F", "note": "[MLNA 1, 4-[2-(4-aminopiperidin-1-yl)-5-(3-fluoro-4-methoxyphenyl)-1-methyl-6-oxo-1,6-dihydropyrimidin-4-yl]-2-fluorobenzonitrile]", "Stability post-storage at 40° C./75% RH": "Pattern change"}, {"smiles": "COc1ccc(-c2c(-c3ccc(C#N)c(F)c3)nc(N3CCC(N)CC3)n(C)c2=O)cc1F", "note": "[MA 3, 4-[2-(4-aminopiperidin-1-yl)-5-(3-fluoro-4-methoxyphenyl)-1-methyl-6-oxo-1,6-dihydropyrimidin-4-yl]-2-fluorobenzonitrile]", "Stability post-storage at 40° C./75% RH": "Pattern change"}, {"smiles": "COc1ccc(-c2c(-c3ccc(C#N)c(F)c3)nc(N3CCC(N)CC3)n(C)c2=O)cc1F", "note": "[BSA 2, 4-[2-(4-aminopiperidin-1-yl)-5-(3-fluoro-4-methoxyphenyl)-1-methyl-6-oxo-1,6-dihydropyrimidin-4-yl]-2-fluorobenzonitrile]", "Stability post-storage at 40° C./75% RH": "Extra peaks observed"}, {"smiles": "COc1ccc(-c2c(-c3ccc(C#N)c(F)c3)nc(N3CCC(N)CC3)n(C)c2=O)cc1F", "note": "[CA 2, 4-[2-(4-aminopiperidin-1-yl)-5-(3-fluoro-4-methoxyphenyl)-1-methyl-6-oxo-1,6-dihydropyrimidin-4-yl]-2-fluorobenzonitrile]", "Stability post-storage at 40° C./75% RH": "No form change"}, {"smiles": "COc1ccc(-c2c(-c3ccc(C#N)c(F)c3)nc(N3CCC(N)CC3)n(C)c2=O)cc1F", "note": "[PHOA 2, 4-[2-(4-aminopiperidin-1-yl)-5-(3-fluoro-4-methoxyphenyl)-1-methyl-6-oxo-1,6-dihydropyrimidin-4-yl]-2-fluorobenzonitrile]", "Stability post-storage at 40° C./75% RH": "Pattern change"}, {"smiles": "COc1ccc(-c2c(-c3ccc(C#N)c(F)c3)nc(N3CCC(N)CC3)n(C)c2=O)cc1F", "note": "[BA 2, 4-[2-(4-aminopiperidin-1-yl)-5-(3-fluoro-4-methoxyphenyl)-1-methyl-6-oxo-1,6-dihydropyrimidin-4-yl]-2-fluorobenzonitrile]", "Stability post-storage at 40° C./75% RH": "No significant"}, {"smiles": "COc1ccc(-c2c(-c3ccc(C#N)c(F)c3)nc(N3CCC(N)CC3)n(C)c2=O)cc1F", "note": "[FUA 3, 4-[2-(4-aminopiperidin-1-yl)-5-(3-fluoro-4-methoxyphenyl)-1-methyl-6-oxo-1,6-dihydropyrimidin-4-yl]-2-fluorobenzonitrile]", "Stability post-storage at 40° C./75% RH": "Pattern change"}, {"smiles": "COc1ccc(-c2c(-c3ccc(C#N)c(F)c3)nc(N3CCC(N)CC3)n(C)c2=O)cc1F", "note": "[CA 1, 4-[2-(4-aminopiperidin-1-yl)-5-(3-fluoro-4-methoxyphenyl)-1-methyl-6-oxo-1,6-dihydropyrimidin-4-yl]-2-fluorobenzonitrile]", "Stability post-storage at 40° C./75% RH": "Pattern change"}, {"smiles": "COc1ccc(-c2c(-c3ccc(C#N)c(F)c3)nc(N3CCC(N)CC3)n(C)c2=O)cc1F", "note": "[FUA 1, 4-[2-(4-aminopiperidin-1-yl)-5-(3-fluoro-4-methoxyphenyl)-1-methyl-6-oxo-1,6-dihydropyrimidin-4-yl]-2-fluorobenzonitrile]", "Stability post-storage at 40° C./75% RH": "Pattern change"}, {"smiles": "COc1ccc(-c2c(-c3ccc(C#N)c(F)c3)nc(N3CCC(N)CC3)n(C)c2=O)cc1F", "note": "[PHOA 3, 4-[2-(4-aminopiperidin-1-yl)-5-(3-fluoro-4-methoxyphenyl)-1-methyl-6-oxo-1,6-dihydropyrimidin-4-yl]-2-fluorobenzonitrile]", "Stability post-storage at 40° C./75% RH": "Reduced crystallinity"}, {"smiles": "COc1ccc(-c2c(-c3ccc(C#N)c(F)c3)nc(N3CCC(N)CC3)n(C)c2=O)cc1F", "note": "[MA 2, 4-[2-(4-aminopiperidin-1-yl)-5-(3-fluoro-4-methoxyphenyl)-1-methyl-6-oxo-1,6-dihydropyrimidin-4-yl]-2-fluorobenzonitrile]", "Stability post-storage at 40° C./75% RH": "Pattern change"}, {"smiles": "COc1ccc(-c2c(-c3ccc(C#N)c(F)c3)nc(N3CCC(N)CC3)n(C)c2=O)cc1F", "note": "[MA 1, 4-[2-(4-aminopiperidin-1-yl)-5-(3-fluoro-4-methoxyphenyl)-1-methyl-6-oxo-1,6-dihydropyrimidin-4-yl]-2-fluorobenzonitrile]", "Stability post-storage at 40° C./75% RH": "Amorphous"}, {"smiles": "COc1ccc(-c2c(-c3ccc(C#N)c(F)c3)nc(N3CCC(N)CC3)n(C)c2=O)cc1F", "note": "[TAR 1, 4-[2-(4-aminopiperidin-1-yl)-5-(3-fluoro-4-methoxyphenyl)-1-methyl-6-oxo-1,6-dihydropyrimidin-4-yl]-2-fluorobenzonitrile]", "Stability post-storage at 40° C./75% RH": "Pattern change"}]}, {"assay": "Thermodynamic solubility in FeSSIF", "type": "physicochemical", "settings": "fed state simulated intestinal fluid (FeSSIF), equilibrated at 25° C. for 24 hours", "experimental": "(§1) Solubility was determined by suspending sufficient compound in fed state simulated intestinal fluid (FeSSIF) to give a maximum final concentration of >3 mg/ml of the parent free-form of the compound. The suspension was equilibrated at 25° C. for 24 hours then the pH was measured. The suspension was then filtered through a glass fibre C filter. The residue was analysed by XRPD as a damp solid. The filtrate was diluted by an appropriate factor prior to analysis by HPLC. Quantitation by HPLC was performed with reference to a standard solution of approximately 0.2 mg/ml in DMSO. Different volumes of the standard, diluted and undiluted sample solutions were injected. The solubility was calculated using the peak areas determined by integration of the peak found at the same retention time as the principal peak in the standard injection. Analysis was performed on an Agilent HP1100 series system equipped with a diode array detector and using ChemStation software vB.04.03.", "units": {"Solubility in FeSSiF": "µg/mL"}, "values": [{"smiles": "COc1ccc(-c2c(-c3ccc(C#N)c(F)c3)nc(N3CCC(N)CC3)n(C)c2=O)cc1F", "note": "[SUCA 1, 4-[2-(4-aminopiperidin-1-yl)-5-(3-fluoro-4-methoxyphenyl)-1-methyl-6-oxo-1,6-dihydropyrimidin-4-yl]-2-fluorobenzonitrile]", "Solubility in FeSSiF": 960}, {"smiles": "COc1ccc(-c2c(-c3ccc(C#N)c(F)c3)nc(N3CCC(N)CC3)n(C)c2=O)cc1F", "note": "[free base, 4-[2-(4-aminopiperidin-1-yl)-5-(3-fluoro-4-methoxyphenyl)-1-methyl-6-oxo-1,6-dihydropyrimidin-4-yl]-2-fluorobenzonitrile]", "Solubility in FeSSiF": 280}, {"smiles": "COc1ccc(-c2c(-c3ccc(C#N)c(F)c3)nc(N3CCC(N)CC3)n(C)c2=O)cc1F", "note": "[MA 1, 4-[2-(4-aminopiperidin-1-yl)-5-(3-fluoro-4-methoxyphenyl)-1-methyl-6-oxo-1,6-dihydropyrimidin-4-yl]-2-fluorobenzonitrile]", "Solubility in FeSSiF": 630}]}, {"assay": "Thermodynamic solubility in FeSSIF", "type": "physicochemical", "settings": "residue of the FeSSIF solubility test, analysed by XRPD as a damp solid", "experimental": "as §1", "values": [{"smiles": "COc1ccc(-c2c(-c3ccc(C#N)c(F)c3)nc(N3CCC(N)CC3)n(C)c2=O)cc1F", "note": "[SUCA 1, 4-[2-(4-aminopiperidin-1-yl)-5-(3-fluoro-4-methoxyphenyl)-1-methyl-6-oxo-1,6-dihydropyrimidin-4-yl]-2-fluorobenzonitrile]", "XRPD of residue": "Amorphous"}, {"smiles": "COc1ccc(-c2c(-c3ccc(C#N)c(F)c3)nc(N3CCC(N)CC3)n(C)c2=O)cc1F", "note": "[MA 1, 4-[2-(4-aminopiperidin-1-yl)-5-(3-fluoro-4-methoxyphenyl)-1-methyl-6-oxo-1,6-dihydropyrimidin-4-yl]-2-fluorobenzonitrile]", "XRPD of residue": "Amorphous"}]}]}
